± gives the standard deviation of the averaged measurements.
Assays:
Test in all cases: normalised percent inhibition of luminescence (vs positive and negative controls); higher = stronger inhibition
[1] = test system: NanoLuc luciferase (NLuc)
Protocol: (§1)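 Concentration-response (>=11 concentrations) of metal salts on purified FLuc, NLuc or RLuc luminescence in screening (SC) or 100 mM HEPES (H) buffer; salt pre-incubated with enzyme 10 min at RT, read 10 min after substrate. Normalised percent inhibition vs plate positive (PTC-124, isradipine, BTS) and DMSO negative controls; triplicate wells.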

[2] = test system: Renilla luciferase (RLuc)
Protocol: as §1

[3] = test system: firefly luciferase (FLuc)
Protocol: as §1

CC#N.CC#N.CC#N.CC#N.F[B-](F)(F)F.[Cu+] [tetrakis(acetonitrile)copper(I) tetrafluoroborate]
normalised percent inhibition [%]
Conditions	[1]	[2]	[3]
metal salt concentration 15.6 nM, 100 mM HEPES buffer	–	–	31.6 ± 5.6
metal salt concentration 31.25 nM, 100 mM HEPES buffer	–	–	19.4 ± 5.8
metal salt concentration 62.5 nM, 100 mM HEPES buffer	–	–	94.7 ± 2.4
metal salt concentration 0.0001 mM, 100 mM HEPES buffer	2.08 ± 2.5	-13.8 ± 1.9	98.82 ± 0.68
metal salt concentration 0.000125 mM, 100 mM HEPES buffer	–	–	99.64 ± 0.61
metal salt concentration 0.00025 mM, 100 mM HEPES buffer	-0.342 ± 1.6	12.4 ± 25	99.92 ± 0.95
metal salt concentration 0.0005 mM, 100 mM HEPES buffer	3.53 ± 1.5	-2.77 ± 18	100.6 ± 0.27
metal salt concentration 0.0005 mM, screening conditions buffer	–	–	19.7 ± 6.5
metal salt concentration 0.001 mM, 100 mM HEPES buffer	4.37 ± 2.7	-10.8 ± 24	100.1 ± 0.47
metal salt concentration 0.001 mM, screening conditions buffer	–	–	-12.4 ± 12
metal salt concentration 0.002 mM, screening conditions buffer	0.453 ± 3.1	12.9 ± 12	6.86 ± 16
metal salt concentration 0.005 mM, screening conditions buffer	0.553 ± 5.7	16.7 ± 4.2	13.5 ± 18
metal salt concentration 0.01 mM, screening conditions buffer	1.88 ± 5.3	11.3 ± 1.8	8.64 ± 11
metal salt concentration 0.02 mM, screening conditions buffer	9.53 ± 10	2.75 ± 5	7.18 ± 12
metal salt concentration 0.025 mM, 100 mM HEPES buffer	5.84 ± 3.1	75.8 ± 10	100.5 ± 0.33
metal salt concentration 0.025 mM, screening conditions buffer	–	–	20.1 ± 6.7
metal salt concentration 0.05 mM, 100 mM HEPES buffer	40.1 ± 16	102 ± 4	100.3 ± 0.32
metal salt concentration 0.05 mM, screening conditions buffer	91.9 ± 19	13.4 ± 7.8	3.96 ± 21
metal salt concentration 0.1 mM, 100 mM HEPES buffer	92.9 ± 4.2	105 ± 1.1	100.5 ± 0.28
metal salt concentration 0.1 mM, screening conditions buffer	158 ± 2.2	9.12 ± 4.9	24.1 ± 11
metal salt concentration 0.2 mM, screening conditions buffer	158.7 ± 0.69	3.41 ± 2.5	31.5 ± 16
metal salt concentration 0.25 mM, 100 mM HEPES buffer	–	–	100.3 ± 0.23
metal salt concentration 0.5 mM, 100 mM HEPES buffer	101.8 ± 0.16	106 ± 2.8	100.5 ± 0.16
metal salt concentration 0.5 mM, screening conditions buffer	160 ± 0.71	106.2 ± 0.25	56.9 ± 11
metal salt concentration 1 mM, 100 mM HEPES buffer	101.8 ± 0.24	107.5 ± 0.97	100.3 ± 0.63
metal salt concentration 1 mM, screening conditions buffer	159.9 ± 0.92	106.7 ± 0.13	99.7 ± 1.5
metal salt concentration 2.5 mM, 100 mM HEPES buffer	101.9 ± 0.13	106 ± 1.7	100.5 ± 0.31
metal salt concentration 2.5 mM, screening conditions buffer	161.2 ± 0.41	106.6 ± 0.25	100.3 ± 0.32
metal salt concentration 5 mM, 100 mM HEPES buffer	101.9 ± 0.11	107 ± 1.7	100.3 ± 0.16
metal salt concentration 5 mM, screening conditions buffer	161.65 ± 0.13	106.5 ± 0.51	100.4 ± 0.4
metal salt concentration 10 mM, screening conditions buffer	–	–	100.1 ± 0.14
metal salt concentration 20 mM, screening conditions buffer	–	–	100.2 ± 0.38

O.O.O.O.O.O.O.O=S(=O)([O-])[O-].[Mg+2] [magnesium sulfate]
normalised percent inhibition [%], 100 mM HEPES buffer
Conditions	[1]	[2]	[3]
metal salt concentration 0.0001 mM	6.62 ± 5.2	-6.9 ± 26	-19.2 ± 9.8
metal salt concentration 0.00025 mM	1.39 ± 2.5	-4.68 ± 19	-27.4 ± 15
metal salt concentration 0.0005 mM	-0.0243 ± 2.5	-11.6 ± 9.2	-11 ± 16
metal salt concentration 0.001 mM	-0.202 ± 2.1	-17 ± 8.5	-24 ± 12
metal salt concentration 0.025 mM	-2.3 ± 2.2	-30.1 ± 5	-31.5 ± 17
metal salt concentration 0.05 mM	0.502 ± 4.4	-11.6 ± 8.6	-6.49 ± 17
metal salt concentration 0.1 mM	1.8 ± 6	-22.7 ± 9.3	-20 ± 13
metal salt concentration 0.5 mM	1.22 ± 2	-0.986 ± 12	-19.2 ± 16
metal salt concentration 1 mM	-4.91 ± 2.9	-23.4 ± 23	-17.2 ± 16
metal salt concentration 2.5 mM	-6.56 ± 2.5	-40.4 ± 7.5	-12.5 ± 12
metal salt concentration 5 mM	-5.03 ± 1.5	-22.4 ± 16	4.85 ± 15
